What is called pIC50 is the negative decadic logarithm of the IC50, by convention in mol/L. Low readings indicate a large IC50, high ones a small IC50.

This note sets out measurements from patent publication US20220220152A1, “BIVALENT ANTAGONISTS OF INHIBITORS OF APOPTOSIS PROTEINS” (Hepagene Therapeutics (HK) Limited, priority 2019, published 2022).

One experiment addresses T1, cIAP2-BIR3 (Homo sapiens, UniProt Q13489).
T1 construct: cIAP2-BIR3; purchased Reaction Biology APT-11-372
In words: cIAP2-BIR3 fluorescence polarization binding assay. The settings on record: FP, probe AbuRPFK-5FAM (SM5F) 5 nM, cIAP2-BIR3 80 nM, 60 min at 25° C. Put shortly:
(§1)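 Fluorescence polarization competition using 5-carboxyfluorescein-labelled peptide probe AbuRPFK-5FAM; protein and compound preincubated 15 min, probe added, then 60 min at 25° C.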
In general terms: Fluorescence polarisation rises when a labelled molecule tumbles more slowly, as on binding a larger partner.

The next experiment has as its target T2, XIAP-BIR3 (Homo sapiens, UniProt P98170).
T2 construct: XIAP-BIR3; purchased Reaction Biology APT-11-374
In words: XIAP-BIR3 fluorescence polarization binding assay. Particulars: FP, probe AbuRPFK-5FAM (SM5F) 5 nM, XIAP-BIR3 40 nM, 60 min at 25° C. The method, boiled down:
as §1

For a further experiment, the target named is T3, cIAP1-BIR3 (Homo sapiens, UniProt Q13490).
T3 construct: cIAP1-BIR3; purchased Reaction Biology APT-11-370
T3 sequence (Q13490 253-363 limits assumed): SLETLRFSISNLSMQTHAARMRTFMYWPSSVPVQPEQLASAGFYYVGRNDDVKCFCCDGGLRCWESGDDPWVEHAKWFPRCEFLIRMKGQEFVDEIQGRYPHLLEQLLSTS
In words: cIAP1-BIR3 fluorescence polarization binding assay. The settings on record: FP, probe AbuRPFK-5FAM (SM5F) 5 nM, cIAP1-BIR3 15 nM, 60 min at 25° C. Put shortly: as §1

pIC50: −log10 of the molar value.

T1 sequence (Q13489 238-349 limits assumed): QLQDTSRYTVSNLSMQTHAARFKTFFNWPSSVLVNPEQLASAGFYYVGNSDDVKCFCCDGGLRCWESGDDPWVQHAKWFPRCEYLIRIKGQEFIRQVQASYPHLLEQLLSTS
T2 sequence (P98170 241-356 limits assumed): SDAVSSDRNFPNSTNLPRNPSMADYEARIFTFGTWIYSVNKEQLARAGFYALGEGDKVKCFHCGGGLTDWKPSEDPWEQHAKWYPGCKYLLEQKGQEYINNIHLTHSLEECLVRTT

As for `CN[C@@H](C)C(=O)N[C@H](C(=O)N1C[C@@H](O)C[C@H]1C(=O)N[C@@H]1CCCc2c(-c3cccc4c3CCC[C@H]4NC(=O)[C@@H]3C[C@H](O)CN3C(=O)[C@@H](NC(=O)[C@H](C)NC)C3CCCCC3)cccc21)C1CCCCC1` [Compound V-L, (2S,4S)-1-[(2S)-2-cyclohexyl-2-[(2S)-2-(methylamino)propanamido]acetyl]-N-[(5R,5′R)-5′-[(2S,4S)-1-[(2S)-2-cyclohexyl-2-[(2S)-2-(methylamino)propanamido]acetyl]-4-hydroxypyrrolidine-2-amido]-5H,5′H,6H,6′H,7H,7′H,8H,8′H-[1,1′-binaphthalen]-5-yl]-4-hydroxypyrrolidine-2-carboxamide], the negative-log IC50 (pIC50) at cIAP2-BIR3 is 7.00 to 8.00; on XIAP-BIR3 it was 7.00 to 8.00; on cIAP1-BIR3, 8.00 to 9.00.

For `CN[C@@H](C)C(=O)N[C@H](C(=O)N1CCC[C@H]1C(=O)N[C@@H]1CCCc2c(-c3cccc4c3CCC[C@H]4NC(=O)[C@@H]3CCCN3C(=O)[C@@H](NC(=O)[C@H](C)NC)C(C)C)cccc21)C(C)C` [Compound V-M, (2S)-1-[(2S)-3-methyl-2-[(2S)-2-(methylamino)propanamido]butanoyl]-N-[(5R,5′R)-5′-[(2S)-1-[(2S)-3-methy-2-[(2S)-2-(methylamino)propanamido]butanoyl]pyrolidine-2-amido]-5H,5′H,6H,6′H,7H,7′H,8H,8′H-[1,1′-binaphthalen]-5-yl]pyrrolidine-2-carboxamide], the pIC50 on cIAP2-BIR3 was 8.00 to 9.00; on XIAP-BIR3, 7.00 to 8.00; at cIAP1-BIR3, 8.00 to 9.00.

In the case of `CN[C@@H](C)C(=O)N[C@H](C(=O)N1CCC[C@H]1C(=O)N[C@@H]1CCCc2c(-c3cccc4c3CCC[C@H]4NC(=O)[C@@H]3CCCN3C(=O)[C@@H](NC(=O)[C@H](C)NC)C3CCCCC3)cccc21)C1CCCCC1` [Compound V-N, (2S)-1-[(2S)-2-cyclohexyl-2-[(2S)-2-(methylamino)propanamido]acetyl]-N-[(1R)-5-[(5R)-5-[(2S)-1-[(2S)-2-cyclohexyl-2-[(2S)-2-(methylamino)propanamido]acetyl]pyrolidine-2-amido]-5,6,7,8-tetrahydronaphthalen-1-yl]-1,2,3,4-tetrahydronaphthalen-1-yl]pyrrolidine-2-carboxamide], the pIC50 on cIAP2-BIR3, on XIAP-BIR3 and at cIAP1-BIR3 was 8.00 to 9.00 throughout.

With `CC[C@H](NC(=O)[C@H](C)NC)C(=O)N1CCC[C@H]1C(=O)N[C@@H]1CCc2c(-c3cccc4c3CC[C@H]4NC(=O)[C@@H]3CCCN3C(=O)[C@H](CC)NC(=O)[C@H](C)NC)cccc21` [Compound V-O, (2S,2'S)—N,N′-((1R,1′R)-2,2′,3,3′-tetrahydro-1H,1′H-[4,4′-biindene]-1,1′-diyl)bis(1-((S)-2-((S)-2-(methylamino)propanamido)butanoyl)pyrrolidine-2-carboxamide)], the pIC50 on cIAP2-BIR3 was 7.00 to 8.00; at XIAP-BIR3 it was 7.00 to 8.00; at cIAP1-BIR3, 8.00 to 9.00.

As to `CN[C@@H](C)C(=O)N[C@H](C(=O)N1CCC[C@H]1C(=O)N[C@@H]1CCOc2c(-c3cccc4c3OCC[C@H]4NC(=O)[C@@H]3CCCN3C(=O)[C@@H](NC(=O)[C@H](C)NC)C3CCCCC3)cccc21)C1CCCCC1` [Compound V-P, (S)-1-((S)-2-cyclohexyl-2-((S)-2-(methylamino)propanamido)acetyl)-N-((4R,4′R)-4′-((S)-1-((S)-2-cyclohexyl-2-((S)-2-(methylamino)propanamido)acetyl)pyrrolidine-2-carboxamido)-[8,8′-bichroman]-4-yl)pyrrolidine-2-carboxamide], the negative logarithm of the IC50 (pIC50) on cIAP2-BIR3 was 7.00 to 8.00; on XIAP-BIR3, 7.00 to 8.00; on cIAP1-BIR3, 8.00 to 9.00.

Consider `CN[C@@H](C)C(=O)N[C@H](C(=O)N1CCC[C@H]1C(=O)N[C@@H]1CCOc2c(-c3cccc4c3OCC[C@H]4NC(=O)[C@@H]3CCCN3C(=O)[C@@H](NC(=O)[C@H](C)NC)C3CCOCC3)cccc21)C1CCOCC1` [Compound V-Q, (S)-1-((S)-2-((S)-2-(methylamino)propanamido)-2-(tetrahydro-2H-pyran-4-yl)acetyl)-N-((4R,4′R)-4′-((S)-1-((S)-2-((S)-2-(methylamino)propanamido)-2-(tetrahydro-2H-pyran-4-yl)acetyl)pyrrolidine-2-carboxamido)-[8,8′-bichroman]-4-yl)pyrrolidine-2-carboxamide], for which the pIC50 was 7.00 to 8.00 on cIAP2-BIR3, 7.00 to 8.00 on XIAP-BIR3 and 8.00 to 9.00 on cIAP1-BIR3.

With `CN[C@@H](C)C(=O)N[C@H](C(=O)N1CCC[C@H]1C(=O)N[C@@H]1CCc2c(-c3cccc4c3CC[C@H]4NC(=O)[C@@H]3CCCN3C(=O)[C@@H](NC(=O)[C@H](C)NC)C3CCOCC3)cccc21)C1CCOCC1` [Compound V-R, (S)-1-((S)-2-((S)-2-(methylamino)propanamido)-2-(tetrahydro-2H-pyran-4-yl)acetyl)-N-((1R,1′R)-1′-((S)-1-((S)-2-((S)-2-(methylamino)propanamido)-2-(tetrahydro-2H-pyran-4-yl)acetyl)pyrrolidine-2-carboxamido)-2,2′,3,3′-tetrahydro-1H,1′H-[4,4′-biinden]-1-yl)pyrrolidine-2-carboxamide], the pIC50 on cIAP2-BIR3 is 7.00 to 8.00; at XIAP-BIR3 it was 7.00 to 8.00; at cIAP1-BIR3 it was 8.00 to 9.00.

Consider `CN[C@@H](C)C(=O)N[C@H](C(=O)N1CCC[C@H]1C(=O)N[C@@H]1CCCc2c(Nc3cccc4c3CCC[C@H]4NC(=O)[C@@H]3CCCN3C(=O)[C@@H](NC(=O)[C@H](C)NC)C3CCCCC3)cccc21)C1CCCCC1` [Compound VI, (S)-1-((S)-2-cyclohexyl-2-((S)-2-(methylamino)propanamido)acetyl)-N—((R)-5-(((R)-5-((S)-1-((S)-2-cyclohexyl-2-((S)-2-(methylamino)propanamido)acetyl)pyrrolidine-2-carboxamido)-5,6,7,8-tetrahydronaphthalen-1-yl)amino)-1,2,3,4-tetrahydronaphthalen-1-yl)pyrrolidine-2-carboxamide], for which the negative-log IC50 (pIC50) on cIAP2-BIR3 was 7.00 to 8.00; on XIAP-BIR3 it was 7.00 to 8.00; on cIAP1-BIR3, 8.00 to 9.00.

`CN[C@@H](C)C(=O)N[C@H](C(=O)N1CCC[C@H]1C(=O)N[C@@H]1CCCc2c(Nc3cccc4c3CCC[C@H]4NC(=O)[C@@H]3CCCN3C(=O)[C@@H](NC(=O)[C@H](C)NC)C3CCOCC3)cccc21)C1CCOCC1` [Compound VI-A, (S)-1-((S)-2-((S)-2-(methylamino)propanamido)-2-(tetrahydro-2H-pyran-4-yl)acetyl)-N—((R)-5-(((R)-5-((S)-1-((S)-2-((S)-2-(methylamino)propanamido)-2-(tetrahydro-2H-pyran-4-yl)acetyl)pyrrolidine-2-carboxamido)-5,6,7,8-tetrahydronaphthalen-1-yl)amino)-1,2,3,4-tetrahydronaphthalen-1-yl)pyrrolidine-2-carboxamide]: the negative logarithm of the IC50 (pIC50) was 7.00 to 8.00 at cIAP2-BIR3, 7.00 to 8.00 on XIAP-BIR3 and 8.00 to 9.00 at cIAP1-BIR3.

Consider `CN[C@@H](C)C(=O)N[C@H](C(=O)N1CCC[C@H]1C(=O)N[C@@H]1CCCc2c(Nc3cccc4c3CCC[C@H]4NC(=O)[C@@H]3CCCN3C(=O)[C@@H](NC(=O)[C@H](C)NC)C(C)C)cccc21)C(C)C` [Compound VI-B, (S)-1-(methyl-L-alanyl-L-valyl)-N—((R)-5-(((R)-5-((S)-1-(methyl-L-alanyl-L-valyl)pyrolidine-2-carboxamido)-5,6,7,8-tetrahydronaphthalen-1-yl)amino)-1,2,3,4-tetrahydronaphthalen-1-yl)pyrrolidine-2-carboxamide], for which the pIC50 is 7.00 to 8.00 at cIAP2-BIR3, 7.00 to 8.00 on XIAP-BIR3 and 8.00 to 9.00 at cIAP1-BIR3.

Regarding `CC[C@H](NC(=O)[C@H](C)NC)C(=O)N1CCC[C@H]1C(=O)N[C@@H]1CCCc2c(Nc3cccc4c3CCC[C@H]4NC(=O)[C@@H]3CCCN3C(=O)[C@H](CC)NC(=O)[C@H](C)NC)cccc21` [Compound VI-C, (2S,2'S)—N,N′-((1R,1′R)-azanediylbis(1,2,3,4-tetrahydronaphthalene-5,1-diyl))bis(1-((S)-2-((S)-2-(methylamino)propanamido)butanoyl)pyrrolidine-2-carboxamide)], the results for the pIC50 on cIAP2-BIR3, at XIAP-BIR3 and on cIAP1-BIR3 were 7.00 to 8.00, 7.00 to 8.00 and 8.00 to 9.00, respectively.

Regarding `CN[C@@H](C)C(=O)N[C@H](C(=O)N1CCC[C@H]1C(=O)N[C@@H]1CCCc2c(NC(=O)c3cccc4c3CCC[C@H]4NC(=O)[C@@H]3CCCN3C(=O)[C@@H](NC(=O)[C@H](C)NC)C3CCCCC3)cccc21)C1CCCCC1` [Compound VII, (S)-1-((S)-2-Cyclohexyl-2-((S)-2-(methylamino)propanamido)acetyl)-N—((R)-5-(((R)-5-((S)-1-((S)-2-cyclohexyl-2-((S)-2-(methylamino)propanamido)acetyl)pyrrolidine-2-carboxamido)-5,6,7,8-tetrahydronaphthalen-1-yl)carbamoyl)-1,2,3,4-tetrahydronaphthalen-1-yl)pyrrolidine-2-carboxamide], the pIC50 is 8.00 to 9.00 at cIAP2-BIR3, 7.00 to 8.00 on XIAP-BIR3 and 8.00 to 9.00 at cIAP1-BIR3.

Regarding `CN[C@@H](C)C(=O)N[C@H](C(=O)N1CCC[C@H]1C(=O)N[C@@H]1CCCc2c(NC(=O)c3cccc4c3CCC[C@H]4NC(=O)[C@@H]3CCCN3C(=O)[C@@H](NC(=O)[C@H](C)NC)C3CCOCC3)cccc21)C1CCOCC1` [Compound VII-B, (2S)-1[(2S)-2-[(2S)-2-(methylamino)propanamido]-2-(oxan-4-yl)acetyl]-N-[(1R)-5-[[(5R)-5-[(2S)-1[(2S)-2-[(2S)-2-(methylamino)propanamido]-2-(oxan-4-yl)acetyl]pyrrolidine-2-amido]-5,6,7,8-tetrahydronaphthalen-1-yl]carbamoyl]-1,2,3,4-tetrahydronaphthalen-1-yl]pyrrolidine-2-carboxamide], the figures for the pIC50 on cIAP2-BIR3, on XIAP-BIR3 and at cIAP1-BIR3 were 7.00 to 8.00, 7.00 to 8.00 and 8.00 to 9.00, respectively.
